Consider one compound from ChEMBL document CHEMBL3526076, “Species-dependent and receptor-selective action of bilobalide on the function of constitutive androstane receptor and pregnane X receptor” (Drug Metab Dispos, 2012).

Data set [1] deals with T1, Nuclear receptor subfamily 1 group I member 3 (Homo sapiens, UniProt Q14994).
T1 sequence (Q14994 whole entry): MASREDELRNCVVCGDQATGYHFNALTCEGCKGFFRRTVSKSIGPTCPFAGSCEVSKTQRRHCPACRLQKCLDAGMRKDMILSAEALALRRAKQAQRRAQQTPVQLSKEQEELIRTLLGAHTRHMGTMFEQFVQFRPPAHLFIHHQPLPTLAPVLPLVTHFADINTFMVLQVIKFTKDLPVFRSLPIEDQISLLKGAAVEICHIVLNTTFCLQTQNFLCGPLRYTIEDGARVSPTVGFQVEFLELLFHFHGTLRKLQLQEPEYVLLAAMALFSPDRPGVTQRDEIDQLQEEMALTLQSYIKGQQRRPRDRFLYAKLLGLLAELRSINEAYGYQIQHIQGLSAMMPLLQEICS
Kind of data set: Activation of CAR in human Hu1043 hepatocytes assessed as effect on CYP2B6 mRNA expression at 10 to 60 uM after 24 hrs by RT-PCR analysis. The data set is classed as ADME, cell-based, Hepatocyte.

Data set [2] concerns the target T2, Nuclear receptor subfamily 1 group I member 3 (Rattus norvegicus, UniProt Q9QUS1).
T2 sequence (Q9QUS1 whole entry): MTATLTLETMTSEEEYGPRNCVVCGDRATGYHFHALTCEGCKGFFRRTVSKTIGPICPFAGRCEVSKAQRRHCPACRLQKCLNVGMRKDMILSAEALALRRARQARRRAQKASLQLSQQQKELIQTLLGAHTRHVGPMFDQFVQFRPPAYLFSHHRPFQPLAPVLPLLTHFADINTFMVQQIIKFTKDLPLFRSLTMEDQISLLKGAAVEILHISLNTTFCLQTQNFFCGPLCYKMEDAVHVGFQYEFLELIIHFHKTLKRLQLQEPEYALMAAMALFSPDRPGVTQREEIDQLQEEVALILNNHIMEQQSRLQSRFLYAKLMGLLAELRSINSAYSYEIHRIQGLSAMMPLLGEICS
Kind of data set: Activation of CAR in rat hepatocytes assessed as increase in CYP2B-mediated benzyloxyresorufin O-dealkylation at 1 uM after 24 hrs by spectrofluorometric analysis relative to phenobarbital. The data set is classed as ADME, cell-based, Hepatocyte.

Data set [3] deals with PXR mRNA. Kind of data set: Effect on PXR mRNA expression in human hepatocytes at 25 uM by RT-PCR analysis relative to control. In kind it is ADME, cell-based, Hepatocyte. To be noted: read-out: FC.
For data set [4], the system named is PXR mRNA. As to the kind of experiment: Effect on PXR mRNA expression in human hepatocytes at 10 uM by RT-PCR analysis relative to control. In kind it is ADME, cell-based, Hepatocyte. Particulars: read-out: FC; call rule not given here.
In data set [5] the target is T2, Nuclear receptor subfamily 1 group I member 3. Kind of data set: Activation of CAR in rat hepatocytes assessed as upregulation of CYP2B1 mRNA expression at 30 uM after 24 hrs by RT-PCR analysis relative to phenobarbital. In kind it is ADME, cell-based, Hepatocyte.
For data set [6], the target named is T1, Nuclear receptor subfamily 1 group I member 3. Kind of data set: Antagonist activity at human CAR expressed in human HepG2 cells coexpressing CYP2B6 assessed as inhibition of CITCO-induced receptor activation up to 100 uM after 24 hrs by dual luciferase reporter gene assay. In kind it is ADME, cell-based. Particulars: hepg2, 24 h. (In general: In a reporter assay the amount or activity of a reporter protein is the signal.)

Data set [7] concerns the target T3, Nuclear receptor subfamily 1 group I member 2 (Homo sapiens, UniProt O75469).
T3 sequence (O75469 whole entry): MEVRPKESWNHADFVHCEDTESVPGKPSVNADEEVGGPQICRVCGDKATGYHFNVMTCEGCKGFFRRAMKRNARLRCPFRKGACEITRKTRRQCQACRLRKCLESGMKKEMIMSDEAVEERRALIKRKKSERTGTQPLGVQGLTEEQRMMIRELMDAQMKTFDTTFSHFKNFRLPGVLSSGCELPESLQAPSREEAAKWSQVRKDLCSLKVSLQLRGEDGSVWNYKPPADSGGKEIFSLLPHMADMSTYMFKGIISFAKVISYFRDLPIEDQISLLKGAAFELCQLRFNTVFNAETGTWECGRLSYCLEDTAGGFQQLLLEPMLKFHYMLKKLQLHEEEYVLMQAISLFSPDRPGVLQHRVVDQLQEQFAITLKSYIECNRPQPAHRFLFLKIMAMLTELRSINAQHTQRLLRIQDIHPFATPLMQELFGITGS
As to the kind of experiment: Activation of PXR in human Hu1108 hepatocytes assessed as effect on CYP3A4 mRNA expression at 10 to 50 uM after 24 hrs by RT-PCR analysis. In kind it is ADME, cell-based, Hepatocyte.

The target of data set [8] is T1, Nuclear receptor subfamily 1 group I member 3. Kind of data set: Activation of human CAR expressed in rat hepatocytes coexpressing CYP2B1 at 100 uM after 24 hrs by dual luciferase reporter gene assay. In kind it is ADME, cell-based, Hepatocyte.
Data set [9] deals with T3, Nuclear receptor subfamily 1 group I member 2. Kind of data set: Activation of human PXR expressed in human HepG2 cells coexpressing CYP3A4 at 0.1 to 100 uM after 24 hrs by dual luciferase reporter gene assay. The data set is classed as ADME, cell-based. Particulars: hepg2, 24 h.
Data set [10] deals with T4, Nuclear receptor subfamily 1 group I member 2 (Rattus norvegicus, UniProt Q9R1A7).
T4 sequence (Q9R1A7 whole entry): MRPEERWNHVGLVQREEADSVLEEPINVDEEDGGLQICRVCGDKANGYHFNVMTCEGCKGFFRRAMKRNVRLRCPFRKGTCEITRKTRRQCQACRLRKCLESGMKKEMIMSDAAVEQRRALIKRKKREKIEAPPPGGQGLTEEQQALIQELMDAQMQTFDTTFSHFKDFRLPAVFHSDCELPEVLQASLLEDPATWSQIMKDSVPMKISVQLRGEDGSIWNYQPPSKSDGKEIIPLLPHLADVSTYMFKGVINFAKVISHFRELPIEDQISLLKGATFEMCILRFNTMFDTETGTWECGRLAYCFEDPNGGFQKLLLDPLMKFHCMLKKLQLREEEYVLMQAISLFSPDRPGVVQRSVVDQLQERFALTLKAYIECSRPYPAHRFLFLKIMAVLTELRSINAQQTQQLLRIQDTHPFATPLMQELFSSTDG
Kind of data set: Antagonist activity at rat PXR expressed in human HepG2 cells coexpressing CYP3A4 assessed as inhibition of PCN-induced receptor activation up to 100 uM after 24 hrs by dual luciferase reporter gene assay. In kind it is ADME, cell-based. Particulars: hepg2, 24 h.

Data set [11] relates to CAR mRNA. Kind of data set: Effect on CAR mRNA expression in human hepatocytes at 25 uM by RT-PCR analysis relative to control. To be noted: read-out: FC. The data set is classed as ADME, cell-based, Hepatocyte.
Data set [12] addresses T1, Nuclear receptor subfamily 1 group I member 3. Kind of data set: Activation of human CAR expressed in human HepG2 cells coexpressing CYP2B6 at 0.1 to 100 uM after 24 hrs by dual luciferase reporter gene assay. In kind it is ADME, cell-based. Particulars: hepg2, 24 h.
Data set [13] addresses T2, Nuclear receptor subfamily 1 group I member 3. As to the kind of experiment: Activation of rat CAR expressed in rat hepatocytes coexpressing CYP2B1 at 60 uM after 24 hrs by dual luciferase reporter gene assay relative to phenobarbital. The data set is classed as ADME, cell-based, Hepatocyte.
Data set [14] concerns PXR mRNA. Kind of data set: Effect on PXR mRNA expression in human hepatocytes at 50 uM by RT-PCR analysis relative to control. To be noted: read-out: FC. The data set is classed as ADME, cell-based, Hepatocyte.
The target of data set [15] is T1, Nuclear receptor subfamily 1 group I member 3. As to the kind of experiment: Activation of CAR in human Hu1043 hepatocytes assessed as increase in CYP2B6-mediated bupropion hydroxylation at 10 to 60 uM after 24 hrs by LC-MS analysis. In kind it is ADME, cell-based, Hepatocyte.
Data set [16] addresses T2, Nuclear receptor subfamily 1 group I member 3. Kind of data set: Activation of CAR in rat hepatocytes assessed as increase in CYP2B-mediated benzyloxyresorufin O-dealkylation at 30 uM after 24 hrs by spectrofluorometric analysis relative to phenobarbital. In kind it is ADME, cell-based, Hepatocyte.
Data set [17] concerns PXR mRNA. Kind of data set: Effect on PXR mRNA expression in rat hepatocytes at 1 uM by RT-PCR analysis relative to control. In kind it is ADME, cell-based, Hepatocyte. To be noted: read-out: FC.
Data set [18] deals with CAR mRNA. Kind of data set: Effect on CAR mRNA expression in human hepatocytes at 10 uM by RT-PCR analysis relative to control. In kind it is ADME, cell-based, Hepatocyte. To be noted: read-out: FC.
For data set [19], the target named is T4, Nuclear receptor subfamily 1 group I member 2. As to the kind of experiment: Activation of rat PXR expressed in human HepG2 cells coexpressing CYP3A4 at 0.1 to 100 uM after 24 hrs by dual luciferase reporter gene assay. The data set is classed as ADME, cell-based. To be noted: hepg2, 24 h.

Regarding `CC(C)(C)[C@]1(O)C[C@@H]2OC(=O)C[C@@]23C(=O)O[C@@H]2OC(=O)[C@H](O)[C@]213`, the Activity result in [1] is listed as “Not Active”; in data set [2] it was 30%; in [5], 37%; in data set [7], “Not Active”; in [8] it was “Not Active”; in data set [9] it was “Not Active”. Further, the Activity result was “Not Active” in data set [12]; 176% in data set [13]; “Not Active” in [15]; 83% in [16]; “Not Active” in data set [19]. Besides, the results for the fold induction at 25 µM in the data set on PXR mRNA [3] and in the data set on CAR mRNA [11] were 1.2 and 1.4, respectively. For the same compound, the results for the fold induction at 10 µM in the data set with PXR mRNA [4] and with CAR mRNA [18] were 0.7 and 1.4, respectively. Besides, the “inhibition (INH)” value in data set [6] and in data set [10] was “Not Active” in each case. Moreover, the fold induction at 50 µM in the data set on PXR mRNA [14] was determined as 0.4. Moreover, the fold induction at 1 µM in the data set on PXR mRNA [17] was found to be 1.1.
